US9944602B2, “Piperidinone herbicides” (E. I. DU PONT DE NEMOURS AND COMPANY, priority 2014, dated 2018)

Tests used:
Format in all cases: in vivo
[1] = system: barnyardgrass (Echinochloa crus-galli); assay: Test A preemergence barnyardgrass; details: Echinochloa crus-galli, pre-emergence, 240 h, 0 to 100 scale, 0 no effect, 100 complete control, read-out: Barnyardgrass plant response rating; for pest or weed control at 125 g/ha: 125 g ai/ha; for pest or weed control at 500 g/ha: 500 g ai/ha
Method in brief: (§1)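 Injury was scored by eye on a 0 to 100 scale after about 10 days in the greenhouse, with 100 meaning complete control. Preemergence treatment was a directed spray onto soil over seeds; postemergence treatment went onto one- to two-leaf plants 2–10 cm tall.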

[2] = system: kochia (Kochia scoparia); assay: Test A preemergence kochia; details: Bassia scoparia, pre-emergence, 240 h, 0 to 100 scale, 0 no effect, 100 complete control, read-out: Kochia plant response rating; for pest or weed control at 125 g/ha: 125 g ai/ha; for pest or weed control at 500 g/ha: 500 g ai/ha
Method in brief: as §1

[3] = system: ragweed (common ragweed, Ambrosia elatior); assay: Test A preemergence ragweed; details: Ambrosia artemisiifolia, pre-emergence, 240 h, 0 to 100 scale, 0 no effect, 100 complete control, read-out: Ragweed plant response rating; for pest or weed control at 125 g/ha: 125 g ai/ha; for pest or weed control at 500 g/ha: 500 g ai/ha
Method in brief: as §1

[4] = system: ryegrass, Italian (Italian ryegrass, Lolium multiflorum); assay: Test A preemergence ryegrass, Italian; details: Lolium multiflorum, pre-emergence, 240 h, 0 to 100 scale, 0 no effect, 100 complete control, read-out: Ryegrass, Italian plant response rating; for pest or weed control at 125 g/ha: 125 g ai/ha; for pest or weed control at 500 g/ha: 500 g ai/ha
Method in brief: as §1

[5] = system: foxtail, giant (giant foxtail, Setaria faberii); assay: Test A preemergence foxtail, giant; details: Setaria faberi, pre-emergence, 240 h, 0 to 100 scale, 0 no effect, 100 complete control, read-out: Foxtail, Giant plant response rating; for pest or weed control at 125 g/ha: 125 g ai/ha; for pest or weed control at 500 g/ha: 500 g ai/ha
Method in brief: as §1

[6] = system: pigweed (Amaranthus retroflexus); assay: Test A preemergence pigweed; details: Amaranthus retroflexus, pre-emergence, 240 h, 0 to 100 scale, 0 no effect, 100 complete control, read-out: Pigweed plant response rating; for pest or weed control at 125 g/ha: 125 g ai/ha; for pest or weed control at 500 g/ha: 500 g ai/ha
Method in brief: as §1

[7] = system: barnyardgrass (Echinochloa crus-galli); assay: Test A postemergence barnyardgrass; details: Echinochloa crus-galli, post-emergence, 240 h, 0 to 100 scale, 0 is no effect, 100 is complete control, read-out: Plant response rating, Barnyardgrass; for pest or weed control at 125 g/ha: 125 g ai/ha; for pest or weed control at 500 g/ha: 500 g ai/ha
Method in brief: as §1

[8] = system: kochia (Kochia scoparia); assay: Test A postemergence kochia; details: Bassia scoparia, post-emergence, 240 h, 0 to 100 scale, 0 is no effect, 100 is complete control, read-out: Plant response rating, Kochia; for pest or weed control at 125 g/ha: 125 g ai/ha; for pest or weed control at 500 g/ha: 500 g ai/ha
Method in brief: as §1

[9] = system: ragweed (common ragweed, Ambrosia elatior); assay: Test A postemergence ragweed; details: Ambrosia artemisiifolia, post-emergence, 240 h, 0 to 100 scale, 0 is no effect, 100 is complete control, read-out: Plant response rating, Ragweed; for pest or weed control at 125 g/ha: 125 g ai/ha; for pest or weed control at 500 g/ha: 500 g ai/ha
Method in brief: as §1

[10] = system: ryegrass, Italian (Italian ryegrass, Lolium multiflorum); assay: Test A postemergence ryegrass, Italian; details: Lolium multiflorum, post-emergence, 240 h, 0 to 100 scale, 0 is no effect, 100 is complete control, read-out: Plant response rating, Ryegrass, Italian; for pest or weed control at 125 g/ha: 125 g ai/ha; for pest or weed control at 500 g/ha: 500 g ai/ha
Method in brief: as §1

[11] = system: foxtail, giant (giant foxtail, Setaria faberii); assay: Test A postemergence foxtail, giant; details: Setaria faberi, post-emergence, 240 h, 0 to 100 scale, 0 is no effect, 100 is complete control, read-out: Plant response rating, Foxtail, Giant; for pest or weed control at 125 g/ha: 125 g ai/ha; for pest or weed control at 500 g/ha: 500 g ai/ha
Method in brief: as §1

[12] = system: pigweed (Amaranthus retroflexus); assay: Test A postemergence pigweed; details: Amaranthus retroflexus, post-emergence, 240 h, 0 to 100 scale, 0 is no effect, 100 is complete control, read-out: Plant response rating, Pigweed; for pest or weed control at 125 g/ha: 125 g ai/ha; for pest or weed control at 500 g/ha: 500 g ai/ha
Method in brief: as §1

[13] = system: wheat (Triticum aestivum); assay: Test A postemergence wheat; details: Triticum aestivum, post-emergence, 240 h, 0 to 100 scale, 0 is no effect, 100 is complete control, read-out: Plant response rating, Wheat; for plant injury at 125 g/ha: 125 g ai/ha; for plant injury at 500 g/ha: 500 g ai/ha
Method in brief: as §1

[14] = system: corn (Zea mays); assay: Test A postemergence corn; details: Zea mays, post-emergence, 240 h, 0 to 100 scale, 0 is no effect, 100 is complete control; for Corn plant response rating (crop injury, 0 = no effect, 100 = complete kill) at 125 g/ha: 125 g ai/ha; for Corn plant response rating (crop injury, 0 = no effect, 100 = complete kill) at 500 g/ha: 500 g ai/ha
Method in brief: as §1

[15] = system: blackgrass (Alopecurus myosuroides); assay: Test A postemergence blackgrass; details: Alopecurus myosuroides, post-emergence, 240 h, 0 to 100 scale, 0 is no effect, 100 is complete control, read-out: Plant response rating, Blackgrass; for pest or weed control at 125 g/ha: 125 g ai/ha; for pest or weed control at 500 g/ha: 500 g ai/ha
Method in brief: as §1

[16] = system: galium (catchweed bedstraw, Galium aparine); assay: Test A postemergence galium; details: Galium, post-emergence, 240 h, 0 to 100 scale, 0 is no effect, 100 is complete control, read-out: Plant response rating, Galium; for pest or weed control at 125 g/ha: 125 g ai/ha; for pest or weed control at 500 g/ha: 500 g ai/ha
Method in brief: as §1

[17] = system: rice (Oryza sativa); assay: Test B flooded paddy test rice; details: Oryza sativa, Table B, Flood, 250 g ai/ha, scale 0 to 100, read-out: Plant response rating
Method in brief: (§2)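 Once seedlings reached two leaves, pots were flooded 3 cm deep and treated via the paddy water, which remained at that level. Evaluation was visual, against controls, after 13 to 15 d under greenhouse conditions.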

[18] = system: sedge, umbrella (small-flower umbrella sedge, Cyperus difformis); assay: Test B flooded paddy test sedge, umbrella; details: Cyperus difformis, Table B, Flood, 250 g ai/ha, scale 0 to 100, read-out: Plant response rating
Method in brief: as §2

[19] = system: ducksalad (Heteranthera limosa); assay: Test B flooded paddy test ducksalad; details: Heteranthera limosa, Table B, Flood, 250 g ai/ha, scale 0 to 100, read-out: Plant response rating
Method in brief: as §2

[20] = system: barnyardgrass (Echinochloa crus-galli); assay: Test B flooded paddy test barnyardgrass; details: Echinochloa crus-galli, Table B, Flood, 250 g ai/ha, scale 0 to 100, read-out: Plant response rating
Method in brief: as §2

Structure (SMILES) | pest or weed control at 125 g/ha [1] | pest or weed control at 500 g/ha [1] | pest or weed control at 125 g/ha [2] | pest or weed control at 500 g/ha [2] | pest or weed control at 125 g/ha [3] | pest or weed control at 500 g/ha [3] | pest or weed control at 125 g/ha [4] | pest or weed control at 500 g/ha [4] | pest or weed control at 125 g/ha [5] | pest or weed control at 500 g/ha [5] | pest or weed control at 125 g/ha [6] | pest or weed control at 500 g/ha [6] | pest or weed control at 125 g/ha [7] | pest or weed control at 500 g/ha [7] | pest or weed control at 125 g/ha [8] | pest or weed control at 500 g/ha [8] | pest or weed control at 125 g/ha [9] | pest or weed control at 500 g/ha [9] | pest or weed control at 125 g/ha [10] | pest or weed control at 500 g/ha [10] | further results
O=C1NCC[C@H](c2cccc(C(F)(F)F)c2)[C@H]1C(=O)Nc1cccc(F)c1F [Compound 21, (3R,4S)—N-(2,3-difluorophenyl)-2-oxo-4-[3-(trifluoromethyl)phenyl]-3-piperidinecarboxamide] | 90% | 90% | 0% | 0% | 0% | 0% | 0% | 60% | 90% | 90% | 0% | 0% | 90% | 90% | 0% | 0% | 0% | 0% | 30% | 40% | pest or weed control at 125 g/ha [11]: 80%; pest or weed control at 500 g/ha [11]: 80%; pest or weed control at 125 g/ha [12]: 0%; pest or weed control at 500 g/ha [12]: 20%; plant injury at 125 g/ha [13]: 0%; plant injury at 500 g/ha [13]: 60%; Corn plant response rating (crop injury, 0 = no effect, 100 = complete kill) at 125 g/ha [14]: 50%; Corn plant response rating (crop injury, 0 = no effect, 100 = complete kill) at 500 g/ha [14]: 80%; pest or weed control at 125 g/ha [15]: 60%; pest or weed control at 500 g/ha [15]: 80%; pest or weed control at 125 g/ha [16]: 0%; pest or weed control at 500 g/ha [16]: 20%; plant injury at 250 g/ha [17]: 10%; pest or weed control at 250 g/ha [18]: 0%; pest or weed control at 250 g/ha [19]: 100%; pest or weed control at 250 g/ha [20]: 75%
O=C1NCC[C@H](c2ccc(C(F)(F)F)cc2)[C@H]1C(=O)Nc1cccc(F)c1F [Compound 22, (3R,4S)—N-(2,3-difluorophenyl)-2-oxo-4-[4-(trifluoromethyl)phenyl]-3-piperidinecarboxamide] | 90% | 90% | 70% | 80% | 60% | 80% | 20% | 60% | 90% | 90% | 20% | 50% | 80% | 90% | 40% | 60% | 50% | 50% | 40% | 70% | pest or weed control at 125 g/ha [11]: 90%; pest or weed control at 500 g/ha [11]: 90%; pest or weed control at 125 g/ha [12]: 40%; pest or weed control at 500 g/ha [12]: 50%; plant injury at 125 g/ha [13]: 0%; plant injury at 500 g/ha [13]: 60%; Corn plant response rating (crop injury, 0 = no effect, 100 = complete kill) at 125 g/ha [14]: 0%; Corn plant response rating (crop injury, 0 = no effect, 100 = complete kill) at 500 g/ha [14]: 60%; pest or weed control at 125 g/ha [15]: 50%; pest or weed control at 500 g/ha [15]: 60%; pest or weed control at 125 g/ha [16]: 50%; pest or weed control at 500 g/ha [16]: 70%; plant injury at 250 g/ha [17]: 0%; pest or weed control at 250 g/ha [18]: 0%; pest or weed control at 250 g/ha [19]: 100%; pest or weed control at 250 g/ha [20]: 65%
